# In patent US9034387B2, “Intrinsically fluorescent carbon nanospheres and a process thereof” (priority 2007, dated 2015):
# Tested on: acetylated histone H3 in HeLa cells
# Experiment: Immunofluorescence analysis using acetylated H3 antibody
# Format: cell-based
# Conditions: CTPB alone at 300 μM, compared with untreated cells
# Text: FIG. 3. Small molecule HAT activator binds to the CSP and induces hyperacetylation within HeLa cells. (a) X-ray crystal structure of CTPB showing the ball and stick model view of the compound. The color coding of the atoms is as follows: light blue, carbon; white, hydrogen; red, oxygen; grey, fluorine; green, chlorine; dark blue, nitrogen. (b) SEM image of the carbon spheres, adsorbed with CTPB (Panel I). A specific area of the sample was excited with the electron beam of energy suitable for the constituent elements to emit the X-rays of their characteristic wavelength. […] (c)-(d) Top panel represents the confocal image of HeLa cells, Bottom panel represents intensity profile of the image arising from Hoechst stained nuclei shown as blue peak, Fluorescence intensity of CSP is shown as light green peak, Fluorescence intensity from Alexa 488 fluor antibody is shown as dark green peak. HeLa cells, (3c, I) untreated, stained with Hoechst dye; (3c, II) treated with CSP, where carbon sphere fluorescence always overlap with the nuclear region, showing that the nanosphere localized within the nucleus specifically; (3c, III) untreated, probed with antibody against acetylated histone H3; (3c, IV) treated with HAT activator CTPB (300 μM), probed with antibody against acetylated histone H3. […]
smiles,measurement,value
"CCOc1ccccc1C(=O)Nc1ccc(Cl)c(C(F)(F)F)c1 [CTPB, 4-chloro-3-trifluoromethylphenyl-2-ethoxybenzamide]","acetylation level (acetylated H3 immunofluorescence), result in words",did not show any difference
